According to ChEMBL document CHEMBL1201862, “PubChem BioAssay data set” (2004):
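Assay format: 96-well plates, 48-hour exposure. At the GI50, growth is halved.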 Active and inactive are the calls of the source. Cut-off read from the data, not from the text of the source: active = GI50 up to about 1.1 µM and inactive = higher.

Assays:
Assay in all cases: NCI tumour cell line growth inhibition, 48 h
BT-549 = tested on: BT-549
CAKI-1 = tested on: CAKI-1
COLO 205 = tested on: COLO 205
HL-60 = tested on: HL-60
HOP-62 = tested on: HOP-62
K562 = tested on: K562
LOX IMVI = tested on: LOX IMVI
M14 = tested on: M14
MDA-MB-231 = tested on: MDA-MB-231
NCI-H226 = tested on: NCI-H226
NCI-H23 = tested on: NCI-H23
NCI-H522 = tested on: NCI-H522
OVCAR-4 = tested on: OVCAR-4
OVCAR-8 = tested on: OVCAR-8
RPMI-8226 = tested on: RPMI-8226
RXF 393 = tested on: RXF 393
SF-539 = tested on: SF-539
SNB-75 = tested on: SNB-75
UACC-257 = tested on: UACC-257

| SMILES | GI50 (BT-549) | GI50 (CAKI-1) | GI50 (COLO 205) | GI50 (HL-60) | GI50 (HOP-62) | GI50 (K562) | GI50 (LOX IMVI) | GI50 (M14) | GI50 (MDA-MB-231) | GI50 (NCI-H226) | GI50 (NCI-H23) | GI50 (NCI-H522) | GI50 (OVCAR-4) | GI50 (OVCAR-8) | GI50 (RPMI-8226) | GI50 (RXF 393) | GI50 (SF-539) | GI50 (SNB-75) | GI50 (UACC-257) |
| --- | --- | --- | --- | --- | --- | --- | --- | --- | --- | --- | --- | --- | --- | --- | --- | --- | --- | --- | --- |
| O=C1C(Cl)C(c2cc3cc(Br)ccc3nc2Cl)N1c1ccc(Cl)cc1 (stereo unspecified) | 4.4 µM (inactive) | 4.43 µM (inactive) | 4.89 µM (inactive) | 6.95 µM (inactive) | 9.68 µM (inactive) | 5.81 µM (inactive) | 0.906 µM (active) | 5.85 µM (inactive) | 3.9 µM (inactive) | 4.26 µM (inactive) | 5.7 µM (inactive) | 3.95 µM (inactive) | 4.46 µM (inactive) | 5.9 µM (inactive) | 5.21 µM (inactive) | 5.13 µM (inactive) | 4.33 µM (inactive) | 7.83 µM (inactive) | 4.81 µM (inactive) |
| O=C1c2cccc([N+](=O)[O-])c2C(=O)N1c1ncn[nH]1 | 28.2 µM (inactive) | > 100 µM (inactive) | > 100 µM (inactive) | > 100 µM (inactive) | 38.9 µM (inactive) | > 100 µM (inactive) | > 100 µM (inactive) | > 100 µM (inactive) | 56.6 µM (inactive) | 81.8 µM (inactive) | > 100 µM (inactive) | > 100 µM (inactive) | > 100 µM (inactive) | 79.3 µM (inactive) | > 100 µM (inactive) | 63.2 µM (inactive) | 0.822 µM (active) | 23.6 µM (inactive) | > 100 µM (inactive) |
| Cc1cc(S(=O)(=O)Nc2nnc3c4ccccc4cnn23)c(S)cc1Cl | > 54.5 µM (inactive) | > 100 µM (inactive) | > 100 µM (inactive) | > 100 µM (inactive) | 52.8 µM (inactive) | > 100 µM (inactive) | > 100 µM (inactive) | > 100 µM (inactive) | > 93.3 µM (inactive) | 24.1 µM (inactive) | 63 µM (inactive) | > 88.5 µM (inactive) | > 100 µM (inactive) | > 100 µM (inactive) | > 100 µM (inactive) | > 100 µM (inactive) | > 56.9 µM (inactive) | 69.8 µM (inactive) | > 100 µM (inactive) |
| O=C1c2ccccc2/C=C\C(c2ccccc2)=N/N1c1ccccc1Cl | 10.9 µM (inactive) | 16.9 µM (inactive) | > 10 µM (inactive) | 12.7 µM (inactive) | 23.2 µM (inactive) | 5.26 µM (inactive) | 25.1 µM (inactive) | 21.9 µM (inactive) | 11.9 µM (inactive) | 46.8 µM (inactive) | 28.8 µM (inactive) | 12.2 µM (inactive) | 22.4 µM (inactive) | 27.4 µM (inactive) | 23.7 µM (inactive) | 19.2 µM (inactive) | 35.7 µM (inactive) | 25.9 µM (inactive) | 26.8 µM (inactive) |
| O=c1oc2ccccc2c(Nc2ccc3c(c2)S(=O)(=O)c2ccccc2O3)c1[N+](=O)[O-] | 24.2 µM (inactive) | 17.8 µM (inactive) | 22.3 µM (inactive) | 27.3 µM (inactive) | 30 µM (inactive) | 20.6 µM (inactive) | 27 µM (inactive) | 26.2 µM (inactive) | 24.5 µM (inactive) | 25.7 µM (inactive) | 23.5 µM (inactive) | 19.7 µM (inactive) | 20 µM (inactive) | 25.2 µM (inactive) | 19.5 µM (inactive) | 19.5 µM (inactive) | 25.3 µM (inactive) | 22 µM (inactive) | 19.5 µM (inactive) |
| O=C(NC(Cc1c[nH]c2ccccc12)C(=O)O)/C(=C/c1ccccc1)NC(=O)c1ccccc1 (stereo unspecified) | 43.8 µM (inactive) | > 95.1 µM (inactive) | > 100 µM (inactive) | 77.6 µM (inactive) | 41.3 µM (inactive) | 59.7 µM (inactive) | > 100 µM (inactive) | 46 µM (inactive) | > 44.6 µM (inactive) | > 100 µM (inactive) | > 83.2 µM (inactive) | 25.3 µM (inactive) | 71.1 µM (inactive) | 57.5 µM (inactive) | 32.4 µM (inactive) | 34.8 µM (inactive) | 49.4 µM (inactive) | 32.7 µM (inactive) | > 88.7 µM (inactive) |
| COc1ccc2c(c1)CN1C(=N2)CSC1c1c(Cl)cccc1[N+](=O)[O-] (stereo unspecified) | 14.9 µM (inactive) | 23.1 µM (inactive) | 11.4 µM (inactive) | 11.5 µM (inactive) | 34.3 µM (inactive) | 13.6 µM (inactive) | 18.5 µM (inactive) | 18.3 µM (inactive) | 16.4 µM (inactive) | 11.9 µM (inactive) | 15.8 µM (inactive) | 23.7 µM (inactive) | 31.5 µM (inactive) | 30.1 µM (inactive) | 15.4 µM (inactive) | 22.5 µM (inactive) | 15.1 µM (inactive) | 27.8 µM (inactive) | 17.2 µM (inactive) |
| CC1=NN(C(=O)c2ccncc2)C(=O)C1/N=N/c1ccc2ccccc2c1 (stereo unspecified) | > 100 µM (inactive) | > 100 µM (inactive) | 18.7 µM (inactive) | 1.71 µM (inactive) | > 100 µM (inactive) | 5.46 µM (inactive) | 30.1 µM (inactive) | 12.2 µM (inactive) | 20.8 µM (inactive) | > 100 µM (inactive) | > 64.3 µM (inactive) | > 100 µM (inactive) | > 100 µM (inactive) | > 100 µM (inactive) | > 50.6 µM (inactive) | > 100 µM (inactive) | > 96.8 µM (inactive) | > 100 µM (inactive) | > 100 µM (inactive) |
| CN(C)CC1CN(C(=O)Nc2ccccc2)C(=N)O1 (stereo unspecified) | > 100 µM (inactive) | > 100 µM (inactive) | > 100 µM (inactive) | > 100 µM (inactive) | > 100 µM (inactive) | > 100 µM (inactive) | > 100 µM (inactive) | > 100 µM (inactive) | > 100 µM (inactive) | > 100 µM (inactive) | > 100 µM (inactive) | > 100 µM (inactive) | > 100 µM (inactive) | > 100 µM (inactive) | > 100 µM (inactive) | > 100 µM (inactive) | > 100 µM (inactive) | > 100 µM (inactive) | > 100 µM (inactive) |
| CC(=O)O[C@H]1C[C@]2(O)[C@@H]3CC[C@@H]4C[C@@H](O)CC[C@]4(C)[C@H]3CC[C@]2(C)[C@H]1C1=CC(=O)OC1 | 0.0284 µM (active) | 0.034 µM (active) | 0.236 µM (active) | 0.0382 µM (active) | 0.0493 µM (active) | 0.103 µM (active) | 0.0585 µM (active) | 0.172 µM (active) | 0.404 µM (active) | 0.288 µM (active) | 0.0366 µM (active) | 0.0251 µM (active) | 0.0362 µM (active) | 0.0923 µM (active) | 0.0982 µM (active) | 0.0324 µM (active) | 0.0299 µM (active) | 0.153 µM (active) | 0.18 µM (active) |
| C[C@H](CCC(=O)NCCS(=O)(=O)O)[C@H]1CC[C@H]2[C@@H]3CC[C@@H]4C[C@H](O)CC[C@]4(C)[C@H]3CC[C@]12C | > 100 µM (inactive) | > 100 µM (inactive) | > 100 µM (inactive) | > 100 µM (inactive) | > 100 µM (inactive) | > 100 µM (inactive) | > 100 µM (inactive) | > 100 µM (inactive) | > 100 µM (inactive) | > 100 µM (inactive) | > 100 µM (inactive) | > 100 µM (inactive) | > 100 µM (inactive) | > 100 µM (inactive) | > 100 µM (inactive) | > 100 µM (inactive) | > 100 µM (inactive) | > 100 µM (inactive) | > 100 µM (inactive) |
| O=C(Nc1ccc(Cl)cc1)c1cc(S(=O)(=O)Nc2n[nH]c(Nc3ccc4ccccc4c3)n2)c(SSc2cc(Cl)c(C(=O)Nc3ccc(Cl)cc3)cc2S(=O)(=O)Nc2n[nH]c(Nc3ccc4ccccc4c3)n2)cc1Cl | 24.4 µM (inactive) | 19.1 µM (inactive) | 18.4 µM (inactive) | 25.1 µM (inactive) | 27.7 µM (inactive) | 20.5 µM (inactive) | 17.5 µM (inactive) | 24.2 µM (inactive) | 18.6 µM (inactive) | 21.7 µM (inactive) | 24.5 µM (inactive) | 22.6 µM (inactive) | 28 µM (inactive) | 27 µM (inactive) | 22 µM (inactive) | 32.5 µM (inactive) | 23.6 µM (inactive) | 23 µM (inactive) | 33.1 µM (inactive) |
| CCCCCC(CO)C(O)(C(F)(F)F)C(F)(F)F (stereo unspecified) | > 10 µM (inactive) | > 10 µM (inactive) | > 10 µM (inactive) | > 10 µM (inactive) | > 10 µM (inactive) | > 10 µM (inactive) | > 10 µM (inactive) | > 10 µM (inactive) | > 10 µM (inactive) | > 10 µM (inactive) | > 10 µM (inactive) | > 10 µM (inactive) | > 10 µM (inactive) | > 10 µM (inactive) | > 10 µM (inactive) | > 10 µM (inactive) | > 10 µM (inactive) | > 10 µM (inactive) | > 10 µM (inactive) |
| Cc1c(C)c(S(=O)(=O)N(CCCCCCN)OCCCN)c(C)c2c1OC(C)(C)CC2 | 13.3 µM (inactive) | 15.8 µM (inactive) | 4.29 µM (inactive) | 1.22 µM (inactive) | 4.36 µM (inactive) | 4.53 µM (inactive) | 2.4 µM (inactive) | 17.8 µM (inactive) | 3.56 µM (inactive) | 5.37 µM (inactive) | 8.83 µM (inactive) | 4.7 µM (inactive) | 2.49 µM (inactive) | 8.17 µM (inactive) | 4.39 µM (inactive) | 4.13 µM (inactive) | > 24.1 µM (inactive) | 2.99 µM (inactive) | 11 µM (inactive) |
